Target: GST-tagged-Wee1 kinase (Homo sapiens, UniProt P30291)
Experiment: Wee1 time-resolved fluorescence equilibrium binding assay (displacement of Oregon Green-labeled ATP-competitive kinase probe)
Conditions: not given
Description: Wee1 kinase was assayed using a time-resolved fluorescence equilibrium binding assay monitoring displacement of a rapidly reversible Oregon Green-labeled ATP-competitive kinase probe (N-(2-(2-(2-(4-(4-(5-chloro-4-(2-(1-hydroxycyclobutyl)thiazol-5-yl)-1H-pyrrolo[2,3-b]pyridin-2-yl)phenyl)piperazin-1-yl)ethoxy)ethoxy)ethyl)-2′,7′-difluoro-3′,6′-dihydroxy-3-oxo-3H-spiro[isobenzofuran-1,9′-xanthene]-5-carboxamide) by competitive Wee1 inhibitors.

Sequence of GST-tagged-Wee1 kinase (P30291 whole entry): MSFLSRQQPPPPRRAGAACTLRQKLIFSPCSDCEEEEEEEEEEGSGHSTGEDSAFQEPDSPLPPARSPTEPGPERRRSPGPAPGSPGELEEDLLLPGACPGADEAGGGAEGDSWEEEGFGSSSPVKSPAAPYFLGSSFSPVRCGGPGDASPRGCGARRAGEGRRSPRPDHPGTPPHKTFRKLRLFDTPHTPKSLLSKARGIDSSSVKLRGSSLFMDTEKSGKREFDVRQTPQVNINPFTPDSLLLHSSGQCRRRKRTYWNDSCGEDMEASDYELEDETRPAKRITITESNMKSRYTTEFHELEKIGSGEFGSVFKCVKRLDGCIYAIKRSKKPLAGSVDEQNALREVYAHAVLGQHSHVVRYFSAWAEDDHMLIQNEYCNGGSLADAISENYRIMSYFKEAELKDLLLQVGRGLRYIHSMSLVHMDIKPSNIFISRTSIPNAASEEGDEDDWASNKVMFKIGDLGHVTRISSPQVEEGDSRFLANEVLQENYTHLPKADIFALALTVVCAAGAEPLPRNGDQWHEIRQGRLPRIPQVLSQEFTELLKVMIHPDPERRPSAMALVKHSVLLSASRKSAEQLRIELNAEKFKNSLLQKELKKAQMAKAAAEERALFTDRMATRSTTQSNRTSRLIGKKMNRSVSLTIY

| Ki [nM] | Compound |
| --- | --- |
| 0.11 | Cc1nn(-c2c(Cl)cccc2Cl)c(=O)c2cnc(Nc3ccc4c(c3)CN(C)CC4)nc12 [Example 490, 6-(2,6-dichlorophenyl)-8-methyl-2-[(2-methyl-1,2,3,4-tetrahydroisoquinolin-7-yl)amino]pyrimido[4,5-d]pyridazin-5(6H)-one] |
| 172 | CC(O)Cn1nc(-c2ccccn2)c2nc(Nc3ccc4c(c3)CN(C)CC4(C)C)ncc2c1=O (stereo not shown) [Example 288, 6-(2-hydroxypropyl)-8-(pyridin-2-yl)-2-[(2,4,4-trimethyl-1,2,3,4-tetrahydroisoquinolin-7-yl)amino]pyrimido[4,5-d]pyridazin-5(6H)-one] |
| 1.5 | COc1cc(Nc2ncc3c(=O)n(-c4ccccc4C)nc(-c4ccco4)c3n2)ccc1N1CCN(C(C)C)CC1 [Example 138, 8-(2-furyl)-2-{[4-(4-isopropylpiperazin-1-yl)-3-methoxyphenyl]amino}-6-(2-methylphenyl)pyrimido[4,5-d]pyridazin-5(6H)-one] |
| 0.46 | Cc1nn(-c2c(Cl)cccc2Cl)c(=O)c2cnc(Nc3ccc(N4CCNC(=O)C4)cc3)nc12 [Example 442, 6-(2,6-dichlorophenyl)-8-methyl-2-{[4-(3-oxopiperazin-1-yl)phenyl]amino}pyrimido[4,5-d]pyridazin-5(6H)-one] |
| 770 | CC1CCCC(C)C1n1nc(-c2ccccn2)c2nc(Nc3ccc(N4CCNCC4)cc3)ncc2c1=O (stereo not shown) [Example 333, 6-(2,6-dimethylcyclohexyl)-2-{[4-(piperazin-1-yl)phenyl]amino}-8-(pyridin-2-yl)pyrimido[4,5-d]pyridazin-5(6H)-one] |
| 0.21 | CCc1nn(-c2c(Cl)cccc2Cl)c(=O)c2cnc(Nc3ccc4c(c3)CNCC4)nc12 [Example 403, 6-(2,6-dichlorophenyl)-8-ethyl-2-(1,2,3,4-tetrahydroisoquinolin-7-ylamino)pyrimido[4,5-d]pyridazin-5(6H)-one] |
| 0.73 | Cc1nn(-c2ccccc2Cl)c(=O)c2cnc(Nc3ccc4c(c3)CCNC4)nc12 [Example 481, 6-(2-chlorophenyl)-8-methyl-2-(1,2,3,4-tetrahydroisoquinolin-6-ylamino)pyrimido[4,5-d]pyridazin-5(6H)-one] |
| 1 | Cn1ccnc1-c1nn(-c2c(Cl)cccc2Cl)c(=O)c2cnc(Nc3ccc4c(c3)CNCC43CC3)nc12 [Example 356, 6-(2,6-dichlorophenyl)-2-(2′,3′-dihydro-1′H-spiro[cyclopropane-1,4′-isoquinolin]-7′-ylamino)-8-(1-methyl-1H-imidazol-2-yl)pyrimido[4,5-d]pyridazin-5(6H)-one] |
| 2.5 | Cc1ccccc1-n1nc(-c2ccccc2)c2nc(Nc3ccc(CN(C)C)cc3)ncc2c1=O [Example 111, 2-({4-[(dimethylamino)methyl]phenyl}amino)-6-(2-methylphenyl)-8-phenylpyrimido[4,5-d]pyridazin-5(6H)-one] |
| 14 | C=CCn1nc(-c2ccco2)c2nc(Nc3ccc(N4CCN(C(C)C)CC4)cc3)ncc2c1=O [Example 112, 6-allyl-8-(2-furyl)-2-{[4-(4-isopropylpiperazin-1-yl)phenyl]amino}pyrimido[4,5-d]pyridazin-5(6H)-one] |
| 1500 | O=c1c2cnc(Nc3ccc(N4CCNCC4)cc3)nc2c(-c2ccccn2)nn1C1CCCCC1 [Example 249, 6-cyclohexyl-2-{[4-(piperazin-1-yl)phenyl]amino}-8-(pyridin-2-yl)pyrimido[4,5-d]pyridazin-5(6H)-one] |
| 0.75 | Cc1nn(-c2c(Cl)cccc2Cl)c(=O)c2cnc(Nc3cccc(C(=O)N4CCC(N(C)C)CC4)c3)nc12 [Example 519, 6-(2,6-dichlorophenyl)-2-[(3-{[4-(dimethylamino)piperidin-1-yl]carbonyl}phenyl)amino]-8-methylpyrimido[4,5-d]pyridazin-5(6H)-one] |
| 0.5 | O=c1c2cnc(Nc3ccc4c(c3)CNCC4)nc2c(C(F)(F)F)nn1-c1c(Cl)cccc1Cl [Example 421, 6-(2,6-dichlorophenyl)-2-(1,2,3,4-tetrahydroisoquinolin-7-ylamino)-8-(trifluoromethyl)pyrimido[4,5-d]pyridazin-5(6H)-one] |
| 1.1 | Cc1nn(-c2ncccc2Cl)c(=O)c2cnc(Nc3ccc4c(c3)CN(C)CC43CC3)nc12 [Example 351, 6-(3-chloropyridin-2-yl)-8-methyl-2-[(2′-methyl-2′,3′-dihydro-1′H-spiro[cyclopropane-1,4′-isoquinolin]-7′-yl)amino]pyrimido[4,5-d]pyridazin-5(6H)-one] |
| 0.3 | O=C1CCCN1c1ccc(-c2nn(-c3c(Cl)cccc3Cl)c(=O)c3cnc(Nc4ccc(C5CCNCC5)cc4)nc23)cc1 [Example 254, 6-(2,6-dichlorophenyl)-8-[4-(2-oxopyrrolidin-1-yl)phenyl]-2-{[4-(piperidin-4-yl)phenyl]amino}pyrimido[4,5-d]pyridazin-5(6H)-one] |
| 1 | Cc1ccccc1-n1nc(-c2cccs2)c2nc(Nc3ccc(N4CCN(C(C)C)CC4)cc3)ncc2c1=O [Example 118, 2-{[4-(4-isopropylpiperazin-1-yl)phenyl]amino}-6-(2-methylphenyl)-8-(2-thienyl)pyrimido[4,5-d]pyridazin-5(6H)-one] |
| < 1 | CN1CCN(c2ccc(Nc3ncc4c(=O)n(-c5ccccc5Cl)nc(-c5ccccc5)c4n3)cc2)CC1 [Example 29, 6-(2-chlorophenyl)-2-{[4-(4-methylpiperazin-1-yl)phenyl]amino}-8-phenylpyrimido[4,5-d]pyridazin-5(6H)-one] |
| 35 | Cc1nn(-c2c(Cl)cccc2Cl)c(=O)c2cnc(Nc3ccc4c(c3)CN(CC(F)(F)F)CC4(C)C)nc12 [Example 370, 6-(2,6-dichlorophenyl)-2-{[4,4-dimethyl-2-(2,2,2-trifluoroethyl)-1,2,3,4-tetrahydroisoquinolin-7-yl]amino}-8-methylpyrimido[4,5-d]pyridazin-5(6H)-one] |
| 0.5 | Cc1nn(-c2ncccc2Cl)c(=O)c2cnc(Nc3ccc4c(c3)CNCC43CC3)nc12 [Example 349, 6-(3-chloropyridin-2-yl)-2-(2′,3′-dihydro-1′H-spiro[cyclopropane-1,4′-isoquinolin]-7′-ylamino)-8-methylpyrimido[4,5-d]pyridazin-5(6H)-one] |
| 1 | Cc1nn(-c2c(Cl)cccc2Cl)c(=O)c2cnc(Nc3ccc4c(c3)CC(N(C)C)C4)nc12 (stereo not shown) [Example 397, 6-(2,6-dichlorophenyl)-2-{[2-(dimethylamino)-2,3-dihydro-1H-inden-5-yl]amino}-8-methylpyrimido[4,5-d]pyridazin-5(6H)-one] |
| 39 | C=CCn1nc(-c2ccccc2)c2nc(Nc3ccc(CN(C)C)cc3)ncc2c1=O [Example 143, 6-allyl-2-({4-[(dimethylamino)methyl]phenyl}amino)-8-phenylpyrimido[4,5-d]pyridazin-5(6H)-one] |
| 0.26 | O=c1c2cnc(Nc3ccc4c(c3)CNCC4)nc2c(-c2cncs2)nn1-c1c(Cl)cccc1Cl [Example 318, 6-(2,6-dichlorophenyl)-2-(1,2,3,4-tetrahydroisoquinolin-7-ylamino)-8-(1,3-thiazol-5-yl)pyrimido[4,5-d]pyridazin-5(6H)-one] |
| 6 | C=CCn1nc(-c2cccs2)c2nc(Nc3ccc(N4CCN(C(C)C)CC4)cc3)ncc2c1=O [Example 126, 6-allyl-2-{[4-(4-isopropylpiperazin-1-yl)phenyl]amino}-8-(2-thienyl)pyrimido[4,5-d]pyridazin-5(6H)-one] |
| 0.17 | CC(=O)N1CCc2cc(Nc3ncc4c(=O)n(-c5c(Cl)cccc5Cl)nc(C(F)F)c4n3)ccc2C1 [Example 476, 2-[(2-acetyl-1,2,3,4-tetrahydroisoquinolin-6-yl)amino]-6-(2,6-dichlorophenyl)-8-(difluoromethyl)pyrimido[4,5-d]pyridazin-5(6H)-one] |
| 3.7 | Cn1cnc(-c2nn(-c3c(Cl)cncc3Cl)c(=O)c3cnc(Nc4ccc5c(c4)CNCC54CC4)nc23)c1 [Example 372, 6-(3,5-dichloropyridin-4-yl)-2-(2′,3′-dihydro-1′H-spiro[cyclopropane-1,4′-isoquinolin]-7′-ylamino)-8-(1-methyl-1H-imidazol-4-yl)pyrimido[4,5-d]pyridazin-5(6H)-one] |
| 0.5 | CN1CCN(c2ccc(Nc3ncc4c(=O)n(-c5c(Cl)cccc5Cl)nc(-c5ccc(N6CCCC6=O)cc5)c4n3)cc2)CC1 [Example 244, 6-(2,6-dichlorophenyl)-2-{[4-(4-methylpiperazin-1-yl)phenyl]amino}-8-[4-(2-oxopyrrolidin-1-yl)phenyl]pyrimido[4,5-d]pyridazin-5(6H)-one] |
| 5 | CN1Cc2cc(Nc3ncc4c(=O)n(-c5c(Cl)cncc5Cl)nc(-c5cn(C)cn5)c4n3)ccc2C2(CC2)C1 [Example 359, 6-(3,5-dichloropyridin-4-yl)-2-[(2′-methyl-2′,3′-dihydro-1′H-spiro[cyclopropane-1,4′-isoquinolin]-7′-yl)amino]-8-(1-methyl-1H-imidazol-4-yl)pyrimido[4,5-d]pyridazin-5(6H)-one] |
| 1100 | CN1CCN(c2ccc(Nc3ncc4c(=O)[nH]nc(C5CCCC5)c4n3)cc2)CC1 [Example 14, 8-cyclopentyl-2-{[4-(4-methylpiperazin-1-yl)phenyl]amino}pyrimido[4,5-d]pyridazin-5(6H)-one] |
| 1.8 | Cc1cc(Nc2ncc3c(=O)n(-c4ncccc4Cl)nc(C)c3n2)ccc1N1CCCN(C)CC1 [Example 369, 6-(3-chloropyridin-2-yl)-8-methyl-2-(3-methyl-4-(4-methyl-1,4-diazepan-1-yl)phenylamino)pyridazino[4,5-d]pyrimidin-5(6H)-one] |

Same assay, conditions: read-out: Wee-1 inhibition Ki

| Compound | Ki [nM] |
| --- | --- |
| 3-{[6-(2,6-dichlorophenyl)-8-methyl-5-oxo-5,6-dihydropyrimido[4,5-d]pyridazin-2-yl]amino}benzoic acid [Example 521] | 97 |
| 6-(2-chlorophenyl)-8-(2-furyl)-2-{[4-(4-methylpiperazin-1-yl)phenyl]amino}pyrimido[4,5-d]pyridazin-5(6H)-one [Example 33] | 0.3 |

— patent US8796289B2 (AbbVie Inc., priority 2011, dated 2014)
